Measurements: patent US8022206B2 (OSI Pharmaceuticals, LLC, priority 2008, dated 2011)

Tests used:
RON (human) = RON (human) (Homo sapiens, UniProt Q04912); assay: RON (human) AlphaScreen kinase assay, Km of ATP; assay type: biochemical; conditions: AlphaScreen, Km of ATP; read-out: RON biochemical IC50
Outline: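 Detection used PT66 AlphaScreen beads added in Tris pH 7.5/NaCl/EDTA/BSA buffer, read after 1 h incubation. Vehicle-only DMSO wells served as controls.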

MET (human) = MET (human) (Homo sapiens, UniProt P08581); assay: MET (human) AlphaScreen kinase assay, Km of ATP; assay type: biochemical; conditions: AlphaScreen, Km of ATP; read-out: Met biochemical IC50
Procedure: Someone skilled in the art will appreciate that a variety of assay formats may be used to determine the activity of the compounds of this invention. For example, AlphaScreen (Amplified Luminescent Proximity Homogeneous Assay) technology was used with the kinases described below. Assay ATP concentrations for individual kinases are included in the text.
Desired compound is added in a final concentration of 1% DMSO with control being vehicle of DMSO alone. MET is diluted to the optimized concentration (optimized on a lot-by-lot basis) in an enzyme diluent buffer (50 mM Tris pH=7.4, 1% glycerol, 0.03% Brij35, 0.24 mM EGTA, 1 mM DTT, and 0.003% BSA). Enzyme is added to initiate the reaction and incubated for 60 min at RT. In subdued light, appropriate amount of PT66 donor and acceptor beads (diluted 1:260 from manufacturer's provision in a 25 mM Tris HCl (pH=7.5), 400 mM NaCl, 100 mM EDTA, 0.3% BSA buffer) are added to the wells. The plates, incubated for 1 h, are read on an AlphaQuest plate reader

MET (human), sequence (P08581 25-1390): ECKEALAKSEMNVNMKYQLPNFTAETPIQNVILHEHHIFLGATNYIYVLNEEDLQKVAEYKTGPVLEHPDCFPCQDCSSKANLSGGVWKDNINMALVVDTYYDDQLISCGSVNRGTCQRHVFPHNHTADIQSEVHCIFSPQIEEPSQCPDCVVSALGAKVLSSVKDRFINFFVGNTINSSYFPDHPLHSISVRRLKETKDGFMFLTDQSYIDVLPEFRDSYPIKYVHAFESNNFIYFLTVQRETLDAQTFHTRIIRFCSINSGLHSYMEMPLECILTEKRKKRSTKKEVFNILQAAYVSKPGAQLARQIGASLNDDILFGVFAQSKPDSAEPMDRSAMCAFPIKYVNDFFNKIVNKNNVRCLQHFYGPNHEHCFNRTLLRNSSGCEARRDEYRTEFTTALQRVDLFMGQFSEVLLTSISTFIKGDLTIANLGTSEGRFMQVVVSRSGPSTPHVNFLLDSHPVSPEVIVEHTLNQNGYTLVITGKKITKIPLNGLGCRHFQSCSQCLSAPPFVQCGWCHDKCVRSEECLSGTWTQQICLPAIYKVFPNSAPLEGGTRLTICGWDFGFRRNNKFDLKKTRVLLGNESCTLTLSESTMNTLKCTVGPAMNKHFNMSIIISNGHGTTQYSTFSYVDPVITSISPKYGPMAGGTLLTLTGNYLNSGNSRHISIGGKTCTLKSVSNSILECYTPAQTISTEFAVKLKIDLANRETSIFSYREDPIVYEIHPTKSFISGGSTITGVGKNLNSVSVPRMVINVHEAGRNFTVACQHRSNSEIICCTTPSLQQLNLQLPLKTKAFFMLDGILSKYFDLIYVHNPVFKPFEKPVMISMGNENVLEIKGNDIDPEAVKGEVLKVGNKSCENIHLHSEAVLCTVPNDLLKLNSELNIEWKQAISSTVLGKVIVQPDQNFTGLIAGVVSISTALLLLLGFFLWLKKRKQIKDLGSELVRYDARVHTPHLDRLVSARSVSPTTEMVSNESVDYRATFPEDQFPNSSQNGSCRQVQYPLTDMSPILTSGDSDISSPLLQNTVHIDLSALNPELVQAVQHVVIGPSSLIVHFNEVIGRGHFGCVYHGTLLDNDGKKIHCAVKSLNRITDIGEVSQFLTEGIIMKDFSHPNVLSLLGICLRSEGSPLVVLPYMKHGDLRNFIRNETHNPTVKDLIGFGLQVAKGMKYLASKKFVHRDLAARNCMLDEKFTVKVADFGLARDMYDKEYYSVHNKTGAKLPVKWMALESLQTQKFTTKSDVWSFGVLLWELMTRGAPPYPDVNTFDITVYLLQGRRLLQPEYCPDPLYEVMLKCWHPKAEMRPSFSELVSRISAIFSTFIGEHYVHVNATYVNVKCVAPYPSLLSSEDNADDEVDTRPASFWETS
RON (human), sequence (Q04912 25-1400): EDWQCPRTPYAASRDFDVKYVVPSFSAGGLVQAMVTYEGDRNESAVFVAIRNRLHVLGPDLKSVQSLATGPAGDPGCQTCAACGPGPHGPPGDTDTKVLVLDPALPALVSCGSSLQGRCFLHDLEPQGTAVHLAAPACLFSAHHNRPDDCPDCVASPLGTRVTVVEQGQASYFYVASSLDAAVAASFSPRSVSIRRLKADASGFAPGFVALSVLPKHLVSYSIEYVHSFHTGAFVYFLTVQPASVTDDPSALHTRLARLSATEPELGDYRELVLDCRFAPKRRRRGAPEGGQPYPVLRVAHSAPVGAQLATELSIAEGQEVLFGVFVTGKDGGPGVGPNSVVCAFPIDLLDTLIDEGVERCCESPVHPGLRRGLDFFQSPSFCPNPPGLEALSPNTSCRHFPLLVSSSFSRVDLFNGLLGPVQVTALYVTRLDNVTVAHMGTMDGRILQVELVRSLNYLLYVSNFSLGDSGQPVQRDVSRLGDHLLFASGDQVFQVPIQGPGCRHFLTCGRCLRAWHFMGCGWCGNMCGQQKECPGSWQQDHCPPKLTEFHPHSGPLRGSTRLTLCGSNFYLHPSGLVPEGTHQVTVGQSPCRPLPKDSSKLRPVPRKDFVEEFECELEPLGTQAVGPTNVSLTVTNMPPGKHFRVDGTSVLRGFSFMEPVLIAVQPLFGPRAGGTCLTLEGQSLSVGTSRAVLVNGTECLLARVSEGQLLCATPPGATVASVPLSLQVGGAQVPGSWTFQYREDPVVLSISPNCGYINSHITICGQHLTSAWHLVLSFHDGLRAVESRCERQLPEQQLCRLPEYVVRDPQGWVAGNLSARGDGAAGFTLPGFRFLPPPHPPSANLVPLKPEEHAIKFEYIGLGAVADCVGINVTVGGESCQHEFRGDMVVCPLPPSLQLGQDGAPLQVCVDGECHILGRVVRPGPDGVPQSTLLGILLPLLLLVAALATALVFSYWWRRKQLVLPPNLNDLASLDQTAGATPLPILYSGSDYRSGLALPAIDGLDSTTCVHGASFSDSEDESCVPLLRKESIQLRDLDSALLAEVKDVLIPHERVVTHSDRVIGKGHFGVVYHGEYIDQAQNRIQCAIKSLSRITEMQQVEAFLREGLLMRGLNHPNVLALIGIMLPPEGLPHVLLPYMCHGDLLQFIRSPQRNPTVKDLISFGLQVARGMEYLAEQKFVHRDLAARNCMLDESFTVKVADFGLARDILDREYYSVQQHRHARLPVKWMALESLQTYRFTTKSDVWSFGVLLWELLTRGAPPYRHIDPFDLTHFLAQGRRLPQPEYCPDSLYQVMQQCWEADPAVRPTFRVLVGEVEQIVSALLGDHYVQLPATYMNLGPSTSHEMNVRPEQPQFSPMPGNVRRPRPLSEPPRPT

IC50 (RON (human)) | IC50 (MET (human)) | SMILES
500 to 5000 nM | 500 to 5000 nM | C[C@@H](Oc1c(N)ncc2c(-c3cnc(N(C)C)nc3)coc12)c1c(Cl)ccc(F)c1Cl [Example 124, 7-[(R)-1-(2,6-Dichloro-3-fluorophenyl)ethoxy]-3-(2-dimethylaminopyrimidin-5-yl)furo[3,2-c]pyridin-6-ylamine]
500 to 5000 nM | < 500 nM | CC(Oc1c(N)ncc2c(-c3cnn(C4CCNCC4)c3)coc12)c1cc(F)cc(-c2ccn[nH]2)c1 (stereo not drawn) [Example 450, 7-{1-[3-Fluoro-5-(2H-pyrazol-3-yl)phenyl]ethoxy}-3-(1-piperidin-4-yl-1H-pyrazol-4-yl)furo[3,2-c]pyridin-6-ylamine]
500 to 5000 nM | < 500 nM | C[C@@H](Oc1c(N)ncc2c(C3=CCOCC3)coc12)c1c(Cl)ccc(F)c1Cl [Example 138, 7-[(R)-1-(2,6-Dichloro-3-fluorophenyl)-ethoxy]-3-(3,6-dihydro-2H-pyran-4-yl)-furo[3,2-c]pyridin-6-ylamine]
500 to 5000 nM | < 500 nM | CC(C)NC(=O)N1CC=C(c2coc3c(O[C@H](C)c4c(Cl)ccc(F)c4Cl)c(N)ncc23)CC1 [Example 149, 4-{6-Amino-7-[(1R)-1-(2,6-dichloro-3-fluorophenyl)ethoxy]furo[3,2-c]pyridin-3-yl}-N-(propan-2-yl)-3,6-dihydropyridine-1(2H)-carboxamide]
< 500 nM | < 500 nM | CC(Cc1ccccc1Br)Oc1c(N)ncc2c(-c3cnn(C4CCNCC4)c3)coc12 (stereo not drawn) [Example 436, 7-[2-(2-Bromophenyl)-1-methylethoxy]-3-(1-piperidin-4-yl-1H-pyrazol-4-yl)furo[3,2-c]pyridin-6-ylamine]
< 500 nM | 500 to 5000 nM | CC(Cc1ccc(Cl)c(Cl)c1)Oc1c(N)ncc2c(-c3cnn(C4CCNCC4)c3)coc12 (stereo not drawn) [Example 428, 7-[2-(3,4-Dichlorophenyl)-1-methylethoxy]-3-(1-piperidin-4-yl-1H-pyrazol-4-yl)furo[3,2-c]pyridin-6-ylamine]
500 to 5000 nM | 500 to 5000 nM | Cc1ccc(C(C)Oc2c(N)ncc3c(-c4cnn(C5CCNCC5)c4)coc23)cc1 (stereo not drawn) [Example 344, 3-(1-Piperidin-4-yl-1H-pyrazol-4-yl)-7-(1-p-tolylethoxy)furo[3,2-c]pyridin-6-ylamine]
500 to 5000 nM | < 500 nM | C[C@@H](Oc1c(N)ncc2c(C3=CCN(c4c(N)c(=O)c4=O)CC3)coc12)c1c(Cl)ccc(F)c1Cl [Example 205, 3-Amino-4-(4-{6-amino-7-[(R)-1-(2,6-dichloro-3-fluorophenyl)ethoxy]-furo[3,2-c]pyridin-3-yl}-3,6-dihydro-2H-pyridin-1-yl)-cyclobut-3-ene-1,2-dione]
500 to 5000 nM | < 500 nM | C[C@@H](Oc1c(N)ncc2c(-c3cccc(CN(C)C)c3)coc12)c1c(Cl)ccc(F)c1Cl [Example 96, 7-[(R)-1-(2,6-Dichloro-3-fluorophenyl)ethoxy]-3-(3-dimethyl-aminomethylphenyl)furo[3,2-c]pyridin-6-ylamine]
500 to 5000 nM | 500 to 5000 nM | CC(Oc1c(N)ncc2c(-c3cnn(C4CCNCC4)c3)coc12)c1ccccc1 (stereo not drawn) [Example 386, 7-(1-Phenylethoxy)-3-(1-piperidin-4-yl-1H-pyrazol-4-yl)furo[3,2-c]pyridin-6-ylamine]

Continued, compound first:

SMILES | IC50 (RON (human)) | IC50 (MET (human))
C[C@@H](Oc1c(N)ncc2c(-c3cnn(CCN4CCOCC4)c3)coc12)c1c(Cl)ccc(F)c1Cl [Example 87, 7-[(R)-1-(2,6-Dichloro-3-fluorophenyl)ethoxy]-3-[1-(2-morpholin-4-ylethyl)-1H-pyrazol-4-yl]furo[3,2-c]pyridin-6-ylamine] | 500 to 5000 nM | 500 to 5000 nM
C[C@@H](Oc1c(N)ncc2c(C3=CCN(C=O)CC3)coc12)c1c(Cl)ccc(F)c1Cl [Example 10, 4-{6-Amino-7-[(R)-1-(2,6-dichloro-3-fluorophenyl)-ethoxy]-furo[3,2-c]pyridin-3-yl}-3,6-dihydro-2H-pyridine-1-carbaldehyde] | < 500 nM | < 500 nM
C[C@@H](Oc1c(N)ncc2c(-c3ccc(C(=O)N(C)C)s3)coc12)c1c(Cl)ccc(F)c1Cl [Example 208, 5-{6-Amino-7-[(R)-1-(2,6-dichloro-3-fluorophenyl)ethoxy]-furo[3,2-c]pyridin-3-yl}-thiophene-2-carboxylic acid dimethyl amide] | 500 to 5000 nM | 500 to 5000 nM
C[C@@H](Oc1c(N)ncc2c(C3=CCN(C(=O)c4cnn[nH]4)CC3)coc12)c1c(Cl)ccc(F)c1Cl [Example 230, (4-{6-Amino-7-[(R)-1-(2,6-dichloro-3-fluorophenyl)ethoxy]-furo[3,2-c]pyridin-3-yl}-3,6-dihydro-2H-pyridin-1-yl)-(3H-[1,2,3]triazol-4-yl)-methanone] | 500 to 5000 nM | 500 to 5000 nM
CCCOC(=O)N1CC=C(c2coc3c(O[C@H](C)c4c(Cl)ccc(F)c4Cl)c(N)ncc23)CC1 [Example 52, 4-{6-Amino-7-[(R)-1-(2,6-dichloro-3-fluorophenyl)-ethoxy]-furo[3,2-c]pyridin-3-yl}-3,6-dihydro-2H-pyridine-1-carboxylic acid propyl ester] | 500 to 5000 nM | 500 to 5000 nM
C[C@@H](Oc1c(N)ncc2c(-c3cnn(C4CCNCC4)c3)c(-c3ccccc3)oc12)c1c(Cl)ccc(F)c1Cl [Example 170, 7-[(R)-1-(2,6-Dichloro-3-fluorophenyl)ethoxy]-2-phenyl-3-(1-piperidin-4-yl-1H-pyrazol-4-yl)-furo[3,2-c]pyridin-6-ylamine] | 500 to 5000 nM | 500 to 5000 nM
C[C@@H](Oc1c(N)ncc2c(C3CCN(C(N)=O)CC3)coc12)c1c(Cl)ccc(F)c1Cl [Example 195, 4-{6-Amino-7-[(R)-1-(2,6-dichloro-3-fluorophenyl)ethoxy]furo[3,2-c]pyridin-3-yl}-piperidine-1-carboxamide] | 500 to 5000 nM | 500 to 5000 nM
CC(C)[C@@H](O)C(=O)N1CC=C(c2coc3c(O[C@H](C)c4c(Cl)ccc(F)c4Cl)c(N)ncc23)CC1 [Example 268, (2R)-1-[4-{6-Amino-7-[(1R)-1-(2,6-dichloro-3-fluorophenyl)ethoxy]furo[3,2-c]pyridin-3-yl}-3,6-dihydropyridin-1(2H)-yl]-2-hydroxy-3-methylbutan-1-one] | 500 to 5000 nM | 500 to 5000 nM
C[C@@H](Oc1c(N)ncc2c(-c3ccc(CN(C)C)cc3)coc12)c1c(Cl)ccc(F)c1Cl [Example 105, 7-[(R)-1-(2,6-Dichloro-3-fluorophenyl)ethoxy]-3-(4-dimethylaminomethylphenyl)-furo[3,2-c]pyridin-6-ylamine] | 500 to 5000 nM | < 500 nM
CC(C)NC(=O)c1csc(-c2coc3c(O[C@H](C)c4c(Cl)ccc(F)c4Cl)c(N)ncc23)c1 [Example 330, 5-{6-Amino-7-[(R)-1-(2,6-dichloro-3-fluorophenyl)ethoxy]furo[3,2-c]pyridin-3-yl}thiophene-3-carboxylic acid Isopropylamide] | 5000 to 20000 nM | 5000 to 20000 nM
C[C@@H](Oc1c(N)ncc2c(-c3ccc(C(=O)NCCO)cc3)coc12)c1c(Cl)ccc(F)c1Cl [Example 287, 4-{6-Amino-7-[(R)-1-(2,6-dichloro-3-fluorophenyl)ethoxy]furo[3,2-c]pyridin-3-yl}-N-(2-hydroxyethyl)benzamide] | 500 to 5000 nM | 500 to 5000 nM
C[C@@H](Oc1c(N)ncc2c(-c3ccc(N4CCN(C(N)=O)CC4)nc3)coc12)c1c(Cl)ccc(F)c1Cl [Example 319, 4-(5-{6-Amino-7-[(R)-1-(2,6-dichloro-3-fluorophenyl)ethoxy]furo[3,2-c]pyridin-3-yl}pyridin-2-yl)piperazine-1-carboxamide] | 500 to 5000 nM | 500 to 5000 nM
CC(Oc1c(N)ncc2c(-c3cnn(C4CCNCC4)c3)coc12)c1cccc(-c2ccccc2)c1 (stereo not drawn) [Example 444, 7-(1-Biphenyl-3-ylethoxy)-3-(1-piperidin-4-yl-1H-pyrazol-4-yl)furo[3,2-c]pyridin-6-ylamine] | 500 to 5000 nM | 500 to 5000 nM
C[C@@H](Oc1c(N)ncc2c(-c3cccc(C(=O)N(C)C)c3)coc12)c1c(Cl)ccc(F)c1Cl [Example 73, 3-{6-Amino-7-[(R)-1-(2,6-dichloro-3-fluorophenyl)ethoxy]-furo[3,2-c]pyridin-3-yl}-N,N-dimethylbenzamide] | 500 to 5000 nM | 500 to 5000 nM
CCN1CC=C(c2coc3c(O[C@H](C)c4c(Cl)ccc(F)c4Cl)c(N)ncc23)CC1 [Example 40, 7-[(R)-1-(2,6-Dichloro-3-fluorophenyl)-ethoxy]-3-(1-ethyl-1,2,3,6-tetrahydropyridin-4-yl)-furo[3,2-c]pyridin-6-ylamine] | < 500 nM | < 500 nM
C[C@@H](Oc1c(N)ncc2c(-c3ccc(CN4CCC(O)CC4)s3)coc12)c1c(Cl)ccc(F)c1Cl [Example 216, 1-(5-{6-Amino-7-[(R)-1-(2,6-dichloro-3-fluorophenyl)ethoxy]-furo[3,2-c]pyridin-3-yl}-thiophen-2-ylmethyl)piperidin-4-ol] | < 500 nM | < 500 nM
CC(Oc1c(N)ncc2c(-c3cnn(C4CCNCC4)c3)coc12)c1cccc(-c2cnn(C)c2)c1 (stereo not drawn) [Example 448, 7-{1-[3-(1-Methyl-1H-pyrazol-4-yl)phenyl]ethoxy}-3-(1-piperidin-4-yl-1H-pyrazol-4-yl)furo[3,2-c]pyridin-6-ylamine] | 500 to 5000 nM | 500 to 5000 nM
